Source: ChEMBL document CHEMBL4619798, “Bioreducible Phosphonoamidate Pro-drug Inhibitor of Enolase: Proof of Concept Study” (ACS Med Chem Lett, 2020)
pIC50: −log10 of the molar value.

How the values were obtained:
[1] = Cytotoxicity against human D423 cells with ENO1 deficient assessed as reduction in cell viability incubated for 5 days by crystal violet staining based spectrophotometry; conditions: 120 h
[2] = Cytotoxicity against human D423 cells with ENO1 deficient assessed as reduction in cell viability incubated for 5 days in presence of 21 % oxygen by crystal violet staining based spectrophotometry; conditions: 120 h
[3] = Cytotoxicity against human D423 cells with ENO1 deficient assessed as reduction in cell viability incubated for 5 days in presence of 1 % oxygen by crystal violet staining based spectrophotometry; conditions: 120 h
[4] = Stability in human plasma assessed as formation of monoester metabolite measured upto 22 hrs by NMR analysis; type: ADME, cell-free
[5] = Stability in human plasma assessed as formation of monoester metabolite measured at less than 30 mins by NMR analysis; type: ADME, cell-free; conditions: 0.5 h

Stability [4]	SMILES	pIC50 [1]	pIC50 [2]	pIC50 [3]	Stability [5]
	CC(C)(C)C(=O)OCOP(=O)(NCc1ccccc1)C1CCCN(O)C1=O (stereo unspecified)	7.01			
Stable	CC(=O)ON1CCCC(P(=O)(NCc2ccccc2)OCc2ccc([N+](=O)[O-])o2)C1=O (stereo unspecified)		6.52	6.87	
	CC(C)(C)C(=O)OCOP(=O)(OCOC(=O)C(C)(C)C)C1CCCN(O)C1=O (stereo unspecified)	7.42	7.10	6.70	Unstable
	O=C1C(P(=O)(O)O)CCCN1O (stereo unspecified)	4.93			
	Cn1c(COP(=O)(NCCBr)NCCBr)cnc1[N+](=O)[O-] [EVOFOSFAMIDE]		5.49	6.39	
